We go through one molecule from patent US11801242B2, “Compositions and methods for adjuvant cancer therapeutics” (DUKE UNIVERSITY, priority 2018, dated 2023).

The target of assay [1] is T1, chimeric FLAG-tagged POL κ RIR-REV1 CTD (Mus musculus, UniProt Q920Q2).
T1 construct: the mouse REV1 CTD (F1150-T1249); His10-GB1 (TEV site) (N, cleaved yes); made in house; host or cells: E. coli BL21 Star (DE3)
T1 sequence (Q920Q2 1150-1249): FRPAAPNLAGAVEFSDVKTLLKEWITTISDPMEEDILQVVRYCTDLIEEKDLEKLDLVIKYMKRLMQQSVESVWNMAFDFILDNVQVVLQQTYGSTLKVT
As to the kind of experiment: In vitro DSS-crosslinking, Western blot. Conditions: 100 μM RE01 NaOH salt. The procedure:
Samples of the chimeric FLAG-tagged POL κ RIR-REV1 CTD in the presence of 0 μM or 100 μM RE01 were treated with increasing molar ratios of DSS (disuccinimidyl suberate) and analyzed by SDS-PAGE followed by Western blotting with anti-FLAG antibody. Monomer and crosslinked dimer bands are labeled.
More specifically, chimeric FLAG-tagged POL κ RIR-REV1 CTD in a buffer containing 25 mM HEPES (pH 7.0), 100 mM KCl, and 4 mM TCEP was mixed with either MPD (control) or RE01 NaOH salt in MPD to yield a reaction solution containing 1 μM protein, 5% MPD, and either 0 or 100 μM compound. Appropriate dilutions of DSS in DMSO were added to the reaction mixture to yield DSS-to-protein molar ratios of 0:1, 0.5:1, 1:1, 5:1, 10:1, and 50:1 and a final DMSO concentration of 5% (v/v). The reaction mixture was incubated for 30 min at room temperature and then quenched by addition of 1 M Tris (pH 8.5). The SDS-loading dye containing 4 mM TCEP and 10.8 mM iodoacetamide (to block free cysteines) was added to each reaction mixture, and the samples were loaded onto a Pre-cast 4-20% gradient SDS-PAGE gel (Bio-Rad). The gel samples were transferred to a 0.45 μm nitrocellulose membrane (Bio-Rad) for Western blotting with the anti-FLAG primary antibody M2 (Sigma-Aldrich) and the HRP-conjugated secondary antibody (LI-COR) and imaging with the LI-COR Odyssey system.

The subject of another assay is HT1080 cells. As to the kind of experiment: HPRT mutagenesis assay. The assay is classed as cell-based, human. As to conditions: RE01 1.5 μM, cisplatin 0.5 μM. The method, then:
(§1) For the hypoxanthine-guanine phosphoribosyl transferase (HPRT) mutagenesis assay, cells were first grown in HAT (complete media with 100 μM Hypoxanthine, 0.4 μM Aminopterin and 16 μM Thymidine) media (ThermoFisher) for 14 days to weed out any spontaneous HPRT mutants. After HAT selection, cells were exposed to cisplatin at the 0.5 μM concentration for 24 hours. Then, in fresh media, RE01 at a concentration of 1.5 μM was added to cells. After 24 hours of drug treatment, cells were trypsinized and washed with PBS. While 200-600 cells were plated in complete media in triplicates in 6-well plates to determine clonal efficiency, the rest of the cells were plated in complete media to allow the expression of the phenotype for 8 days. Then, 500,000 cells per treatment were plated in sextuplicate in 10 cm dishes in 6-TG media to allow the proliferation of mutated HPRT^− cells. Colonies were fixed (50% methanol and 10% glacial acetic acid), stained (0.02% Coomassie brilliant blue R-250 stain in methanol: acetic acid: water in a ratio of 46.5:7:46.5 (v/v/v)), and counted after 14-20 days. The HPRT mutation frequency was calculated as the ratio of the number of HPRT^− colonies in 6-TG media to the number of surviving colonies plated in complete media to determine clonal efficiency.

For a further assay, the system named is A375 xenograft tumors. The experiment in a line: Murine xenograft tumor model. The assay is classed as in vivo, mouse. As to conditions: co-administration RE01 1.6 mg/kg with cisplatin 1 mg/kg, intratumoral, twice per week for 5 weeks. The procedure:
NCRNU-F (nude) female, 6-8-week-old mice were divided into 4 groups (with 6 animals per group) for saline, cisplatin alone, RE01 alone, and cisplatin and RE01 combination treatments. Three million A375 cells mixed in matrigel (Corning) were injected into each flank of the 6 mice to generate 10-12 xenograft tumors per treatment group. After the tumors grew to a total tumor volume of at least 100 mm^3, the drugs (saline, cisplatin alone, RE01 alone, and cisplatin and RE01 combination) with a total volume of 100 μL per injection were injected directly into the tumor. Treatments were carried out twice per week for 5 weeks. On the dosing day, tumors were first measured with calipers, weights were recorded, and then the drugs would be injected directly into the tumors. The mice were sedated with isofluorane prior to measurements and treatments.
The drugs were formulated in 10% EtOH, 40% PEG400, and 50% saline for all the four types of treatments. Cisplatin was injected at a dose of 1 mg/kg per animal and RE01 was administered at a 1.6 mg/kg per animal. In the combination treatment of cisplatin and RE01, the same doses of 1 mg/kg and 1.6 mg/kg respectively per animal were administered. Tumor volumes were calculated by the formula (W^2×L)/2 as described previously.

A further assay has as its system A375 cells. The experiment in a line: qRT-PCR of p21 mRNA. It counts as cell-based, human. Conditions: combination RE01 1.5 μM and cisplatin 1 μM. The procedure:
Total RNA was isolated by using the RNeasy Mini kit (Qiagen) from cells treated with RE01 (1.5 μM), cisplatin (1 μM) and a combination of both RE01 (1.5 μM) and cisplatin (1 μM). 5 ng of RNA from each sample was mixed with 10 μl of Applied Biosystems™ PowerUp™ SYBR™ Green Master Mix (ThermoFisher), 1 μl of MultiScribe™ Reverse Transcriptase (ThermoFisher), 0.1 μl of RNaseOUT™ Recombinant Ribonuclease Inhibitor and 5.9 μl of RNase-free water, and run in a one-step qRT-PCR reaction. Each reaction was run in triplicate. Primers used were: p21 F 5′-[…]-3′ (SEQ ID NO: 9), p21 R 5-CGGCGTTTGGAGTGG TAGAAA-3′ (SEQ ID NO: 10); GAPDH F 5′-[…]-3′ (SEQ ID NO: 11), GAPDH R 5′-[…]-3′ (SEQ ID NO: 12).

In the next assay the test system is Rev1^+/+ MEF cells. The experiment in a line: HPRT mutagenesis assay. Conditions: RE01 1.5 μM, cisplatin 0.5 μM. It counts as cell-based, mouse. The procedure:
as §1

Assay [2] has as its target T2, chimeric REV1 CTD protein (Mus musculus, UniProt Q920Q2).
T2 construct: the mouse REV1 CTD (F1150-T1249); His10-GB1 (TEV site) (N, cleaved yes); made in house; host or cells: E. coli BL21 Star (DE3)
T2 sequence (Q920Q2 1150-1249): T1 sequence (Q920Q2 1150-1249)
The experiment in a line: Isothermal titration calorimetry. The assay is classed as binding. Conditions: 25° C. The method, then:
Isothermal titration calorimetry measurements were carried out using a MicroCal VP-ITC instrument at 25° C., with the chimeric REV1 CTD protein (300 μM) in the syringe and compound (15 μM) in the cell. Compounds were initially dissolved in 50% MPD. Protein and compound samples were diluted in a buffer containing 50 mM HEPES pH 7.5, 50 mM KCl, 2 mM TCEP, 2% DMSO and 0.1% MPD. Microcal Origin 7 software was used to analyze the data.
A general note: In ITC the heat of successive injections is recorded.

In general, Kd refers to the concentration at which binding is half-saturated.

For `CC(C)CC(=O)c1c(Nc2ccc(Cl)cc2Cl)[nH]c2c(Cl)ccc([N+](=O)[O-])c2c1=O` [RE01, 8-chloro-2-((2,4-dichlorophenyl)amino)-3-(3-methylbutanoyl)-5-nitroquinolin-4(1H)-one], in assay [1], the “dimerization of the REV1 CTD in solution” value was “promotes the dimerization”. The “frequency of spontaneous and cisplatin-induced HPRT mutations” value with HT1080 cells is “decreased”. Also, the “growth of xenograft human melanomas” value in the assay with A375 xenograft tumors is “strikingly suppresses”. Besides, in the assay on A375 cells, the “levels of the p21 biomarker” value is “elevated levels”. Besides, the “spontaneous or cisplatin-induced HPRT mutation rates” value with Rev1^+/+ MEF cells is listed as “significantly reduced”. Further, the protein-to-ligand stoichiometry in assay [2] was determined as 2.04±0.03. For the same molecule, the Kd in assay [2] (read-out: dissociation constant (Kd)) was 0.42 ± 0.11 µM.
